# Molecular target: T1, PIP4K2C (Homo sapiens, UniProt Q8TBX8)
# T1 sequence (Q8TBX8 1-421): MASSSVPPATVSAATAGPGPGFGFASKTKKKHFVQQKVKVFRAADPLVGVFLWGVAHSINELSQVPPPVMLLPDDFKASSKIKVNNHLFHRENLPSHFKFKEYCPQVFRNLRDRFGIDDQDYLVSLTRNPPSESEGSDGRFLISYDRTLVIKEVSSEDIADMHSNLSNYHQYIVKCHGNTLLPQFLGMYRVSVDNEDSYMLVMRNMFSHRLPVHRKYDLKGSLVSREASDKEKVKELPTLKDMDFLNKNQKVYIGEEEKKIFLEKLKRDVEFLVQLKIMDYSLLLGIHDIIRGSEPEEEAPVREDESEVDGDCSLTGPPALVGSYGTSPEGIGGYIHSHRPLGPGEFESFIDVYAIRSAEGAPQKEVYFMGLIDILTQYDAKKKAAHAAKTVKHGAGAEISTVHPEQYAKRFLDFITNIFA
# Assay: HiBiT PIP4K2C degradation assay in MOLT-4 cells (endogenous PIP4K2C C-terminally tagged with HiBiT)
# Format: cell-based
# Set-up: untagged in primary human PBMCs and monocyte-derived dendritic cells
# Details: 6 hours of incubation time, rather than 24 hours; MOLT-4, top concentration 10 micromolar; read-out: HiBIT-degradation MOLT4 PIP4k2C DC50 (6 hours, marked *)
# Procedure, shortened: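 Cells are plated onto compound dilutions (10 points, 3-fold, top 10 micromolar) and incubated 24 or 6 hours at 37 C. Lytic HiBiT detection then quantifies tagged endogenous PIP4K2C in MOLT-4, and a Hill fit yields DC50.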
row,DC50 [nM],Compound
1,< 500,"O=C1CCC(Nc2ccc(N3CCC(N4CCC(CC(=O)N[C@H]5CC[C@H](Nc6ncc(F)c(-c7cccc(-n8ccccc8=O)c7)n6)CC5)CC4)CC3)c(F)c2)C(=O)N1 (stereo partly drawn) [Compound 395, trans-2-(1′-(4-((2,6-dioxopiperidin-3-yl)amino)-2-fluorophenyl)-[1,4′-bipiperidin]-4-yl)-N-((1r,4r)-4-((5-fluoro-4-(3-(2-oxopyridin-1(2H)-yl)phenyl)pyrimidin-2-yl)amino)cyclohexyl)acetamide]"
2,< 500,"O=C1CCC(Nc2ccc(C3CCN([C@H]4CC[C@H](C(=O)N[C@H]5CC[C@H](Nc6ncc(F)c(-c7cccc(-c8ccc[nH]c8=O)c7)n6)CC5)CC4)CC3)c(F)c2)C(=O)N1 (stereo partly drawn) [Compound 396, trans-4-(4-(4-((2,6-dioxopiperidin-3-yl)amino)-2-fluorophenyl)piperidin-1-yl)-N-(trans-4-((5-fluoro-4-(3-(2-oxo-1,2-dihydropyridin-3-yl)phenyl)pyrimidin-2-yl)amino)cyclohexyl)cyclohexane-1-carboxamide]"
3,< 500,"O=C1CCC(n2c(=O)oc3cc(N4CCN(CC5CCN(C(=O)[C@H]6CC[C@H](Nc7ncc(F)c(-c8cccc(-n9ccccc9=O)c8)n7)CC6)CC5)CC4)ccc32)C(=O)N1 (stereo partly drawn) [Compound 397, trans-3-(6-(4-((1-(4-((5-fluoro-4-(3-(2-oxopyridin-1(2H)-yl)phenyl)pyrimidin-2-yl)amino)cyclohexane-1-carbonyl)piperidin-4-yl)methyl)piperazin-1-yl)-2-oxobenzo[d]oxazol-3 (2H)-yl)piperidine-2,6-dione]"
4,< 500,"O=C1CCC(n2c(=O)oc3cc(N4CCN(CC5CCN(C(=O)[C@H]6CC[C@H](Nc7ncc(F)c(-c8cccc(-c9ccc[nH]c9=O)c8)n7)CC6)CC5)CC4)ccc32)C(=O)N1 (stereo partly drawn) [Compound 398, trans-3-(6-(4-((1-(4-((5-fluoro-4-(3-(2-oxo-1,2-dihydropyridin-3-yl)phenyl)pyrimidin-2-yl)amino)cyclohexane-1-carbonyl)piperidin-4-yl)methyl)piperazin-1-yl)-2-oxobenzo[d]oxazol-3 (2H)-yl)piperidine-2,6-dione]"
5,< 500,"Cn1nc(C2CCC(=O)NC2=O)c2ccc(N3CCN(CC4CCN(C(=O)[C@H]5CC[C@H](Nc6ncc(F)c(-c7cccc(-n8ccccc8=O)c7)n6)CC5)CC4)CC3)cc21 (stereo partly drawn) [Compound 399, 3-(6-(4-((1-(trans-4-((5-fluoro-4-(3-(2-oxopyridin-1(2H)-yl)phenyl)pyrimidin-2-yl)amino)cyclohexane-1-carbonyl)piperidin-4-yl)methyl)piperazin-1-yl)-1-methyl-1H-indazol-3-yl)piperidine-2,6-dione]"
6,< 500,"O=C1CCC(Nc2ccc(N3CCC(CC4CCN(C(=O)[C@H]5CC[C@H](Nc6ncc(F)c(-c7cccc(-n8ccccc8=O)c7)n6)CC5)CC4)CC3)c(F)c2)C(=O)N1 (stereo partly drawn) [Compound 400, trans-3-((3-fluoro-4-(4-((1-(4-((5-fluoro-4-(3-(2-oxopyridin-1(2H)-yl)phenyl)pyrimidin-2-yl)amino)cyclohexane-1-carbonyl)piperidin-4-yl)methyl)piperidin-1-yl)phenyl)amino)piperidine-2,6-dione]"
7,< 500,"O=C1CCC(Nc2ccc(C3CCN([C@H]4CC[C@H](NC(=O)[C@H]5CC[C@H](Nc6ncc(F)c(-c7cccc(-n8ccccc8=O)c7)n6)CC5)CC4)CC3)c(F)c2)C(=O)N1 (stereo partly drawn) [Compound 401, trans-(1r,4R)—N-((1r,4R)-4-(4-(4-((2,6-dioxopiperidin-3-yl)amino)-2-fluorophenyl)piperidin-1-yl)cyclohexyl)-4-((5-fluoro-4-(3-(2-oxopyridin-1(2H)-yl)phenyl)pyrimidin-2-yl)amino)cyclohexane-1-carboxamide]"
8,< 500,"O=C1CCC(Nc2ccc(C3CCN([C@H]4CC[C@H](NC(=O)[C@H]5CC[C@H](Nc6ncc(F)c(-c7cccc(-c8ccc[nH]c8=O)c7)n6)CC5)CC4)CC3)c(F)c2)C(=O)N1 (stereo partly drawn) [Compound 402, trans-(1r,4R)—N-((1r,4R)-4-(4-(4-((2,6-dioxopiperidin-3-yl)amino)-2-fluorophenyl)piperidin-1-yl)cyclohexyl)-4-((5-fluoro-4-(3-(2-oxo-1,2-dihydropyridin-3-yl)phenyl)pyrimidin-2-yl)amino)cyclohexane-1-carboxamide]"
9,< 500,"O=C1CCC(Nc2ccc(N3CCC(OC4CCN(C(=O)[C@H]5CC[C@H](Nc6ncc(F)c(-c7cccc(-c8ccc[nH]c8=O)c7)n6)CC5)CC4)CC3)c(F)c2)C(=O)N1 (stereo partly drawn) [Compound 403, trans-3-((3-fluoro-4-(4-((1-(4-((5-fluoro-4-(3-(2-oxo-1,2-dihydropyridin-3-yl)phenyl)pyrimidin-2-yl)amino)cyclohexane-1-carbonyl)piperidin-4-yl)oxy)piperidin-1-yl)phenyl)amino)piperidine-2,6-dione]"
10,> 5000,"Cn1nc(C2CCC(=O)NC2=O)c2ccc(N3CCN([C@H]4CC[C@H](NC(=O)[C@H]5CC[C@H](Nc6ncc(F)c(-c7cccc(-c8ccc[nH]c8=O)c7)n6)CC5)CC4)CC3)cc21 (stereo partly drawn) [Compound 404, trans-(1r,4R)—N-((1r,4R)-4-(4-(3-(2,6-dioxopiperidin-3-yl)-1-methyl-1H-indazol-6-yl)piperazin-1-yl)cyclohexyl)-4-((5-fluoro-4-(3-(2-oxo-1,2-dihydropyridin-3-yl)phenyl)pyrimidin-2-yl)amino)cyclohexane-1-carboxamide]"
11,< 500,"O=C1CCC(Nc2ccc(N3CCC(N4CCC(C(=O)N[C@H]5CC[C@H](Nc6ncc(F)c(-c7cccc(-n8ccccc8=O)c7)n6)CC5)CC4)C(F)C3)c(F)c2)C(=O)N1 (some centres unmarked) [Compound 405, 1′-(4-((2,6-dioxopiperidin-3-yl)amino)-2-fluorophenyl)-3′-fluoro-N-((1r,4r)-4-((5-fluoro-4-(3-(2-oxopyridin-1(2H)-yl)phenyl)pyrimidin-2-yl)amino)cyclohexyl)-[1,4′-bipiperidine]-4-carboxamide]"
12,< 500,"O=C1CCC(Nc2ccc(N3CCC(N4CCC(C(=O)N[C@H]5CC[C@H](Nc6ncc(F)c(-c7cccc(-c8ccc[nH]c8=O)c7)n6)CC5)CC4)C(F)C3)c(F)c2)C(=O)N1 (some centres unmarked) [Compound 406, 1′-(4-((2,6-dioxopiperidin-3-yl)amino)-2-fluorophenyl)-3′-fluoro-N-((1r,4r)-4-((5-fluoro-4-(3-(2-oxo-1,2-dihydropyridin-3-yl)phenyl)pyrimidin-2-yl)amino)cyclohexyl)-[1,4′-bipiperidine]-4-carboxamide]"
13,< 500,"O=C1CCC(Nc2ccc(N3CCC(CC4CCN(C(=O)[C@H]5CC[C@H](Nc6ncc(F)c(-c7cccc(-c8ccc[nH]c8=O)c7)n6)CC5)CC4)CC3)c(F)c2)C(=O)N1 (stereo partly drawn) [Compound 407, trans-3-((3-fluoro-4-(4-((1-(4-((5-fluoro-4-(3-(2-oxo-1,2-dihydropyridin-3-yl)phenyl)pyrimidin-2-yl)amino)cyclohexane-1-carbonyl)piperidin-4-yl)methyl)piperidin-1-yl)phenyl)amino)piperidine-2,6-dione]"
14,< 500,"O=C1CCC(Nc2ccc(C3CCN(CC4CCN(C(=O)[C@H]5CC[C@H](Nc6ncc(F)c(-c7cccc(-c8ccc[nH]c8=O)c7)n6)CC5)CC4)CC3(F)F)c(F)c2)C(=O)N1 (stereo partly drawn) [Compound 408, trans-3-[4-[3,3-difluoro-1-[[1-[4-[[5-fluoro-4-[3-(2-oxo-1H-pyridin-3-yl)phenyl]pyrimidin-2-yl]amino]cyclohexanecarbonyl]-4-piperidyl]methyl]-4-piperidyl]-3-fluoro-anilino]piperidine-2,6-dione]"

# — patent publication US20260355196A1, “INHIBITORS AND DEGRADERS OF PIP4K PROTEIN” (Larkspur Biosciences, Inc., priority 2023, published 2026)
